pKi: −log10 of the molar value.

Our source for the inhibition and Ki values is ChEMBL document CHEMBL1146611, “Design and synthesis of novel pyrrolidine-containing bradykinin antagonists” (Bioorg Med Chem Lett, 2003).

Assay [1] has as its target T1, B1 bradykinin receptor (Homo sapiens) (UniProt P46663).
T1 sequence (whole entry): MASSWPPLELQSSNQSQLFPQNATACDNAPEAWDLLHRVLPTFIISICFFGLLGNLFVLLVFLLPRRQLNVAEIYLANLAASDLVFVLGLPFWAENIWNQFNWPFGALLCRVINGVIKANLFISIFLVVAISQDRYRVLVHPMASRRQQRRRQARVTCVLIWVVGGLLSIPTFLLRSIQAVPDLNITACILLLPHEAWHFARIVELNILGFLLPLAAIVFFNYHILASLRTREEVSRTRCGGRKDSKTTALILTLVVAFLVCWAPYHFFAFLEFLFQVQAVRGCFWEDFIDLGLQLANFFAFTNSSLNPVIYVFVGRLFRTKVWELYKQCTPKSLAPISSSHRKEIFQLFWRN
Briefly: In vitro binding affinity against Bradykinin receptor B1 at 1 uM concentration.

Assay [2] has as its target T2, B2 bradykinin receptor (Homo sapiens) (UniProt P30411).
T2 sequence (whole entry): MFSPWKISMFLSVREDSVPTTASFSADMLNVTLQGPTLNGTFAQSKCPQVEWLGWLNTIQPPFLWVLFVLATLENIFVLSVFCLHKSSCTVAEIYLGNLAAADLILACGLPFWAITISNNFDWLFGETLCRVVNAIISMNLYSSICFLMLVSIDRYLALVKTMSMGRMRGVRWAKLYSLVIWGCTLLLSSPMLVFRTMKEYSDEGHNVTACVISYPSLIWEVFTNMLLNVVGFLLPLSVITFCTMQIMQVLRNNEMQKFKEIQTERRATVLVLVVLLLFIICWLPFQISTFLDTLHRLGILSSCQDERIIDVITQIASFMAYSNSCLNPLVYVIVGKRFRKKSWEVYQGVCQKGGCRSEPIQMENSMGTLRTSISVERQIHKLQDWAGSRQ
Nature of the assay: In vitro binding affinity against Bradykinin receptor B2 at 1 uM concentration.

Assay [3] concerns the target T3, B2 bradykinin receptor (Homo sapiens, UniProt P30411).
T3 sequence (P30411 whole entry): T2 sequence (whole entry)
Nature of the assay: In vitro binding affinity against Bradykinin receptor B2.

Regarding `Cc1ccc2cccc(OCc3c(C)ccc(N4CCC[C@H]4CN4C(=O)c5ccccc5C4=O)c3C)c2n1`, the figures for the inhibition in assay [1] and in assay [2] were 5% and 8%, respectively.

`Cc1ccc2cccc(OCc3c(C)ccc(N4CCC[C@@H]4C(=O)O)c3C)c2n1`: the inhibition (usually the share of the control response that was lost under treatment) in assay [1] turned out to be 1%; in assay [2] it was 11%.

For the molecule `Cc1ccc2cccc(OCc3c(C)ccc(N4CCC[C@H]4C(=O)O)c3C)c2n1`, the inhibition in assay [1] stood at 6%; in assay [2] it was 19%.

Consider `CC(=O)Nc1ccc(/C=C/C(=O)NC[C@H]2CCCN2c2ccc(C)c(COc3cccc4ccc(C)nc34)c2C)cn1`, for which the inhibition in assay [1] stood at 1%; in assay [2], 76%. In addition, the negative-log Ki (pKi) (commonly the Ki on a negative log10 scale, so that one unit is a factor of ten) in assay [3] was 7.34.

As to `CC(=O)Nc1ccc(/C=C/C(=O)NC[C@@H]2CCCN2c2ccc(C)c(COc3cccc4ccc(C)nc34)c2C)cn1`, the inhibition in assay [1] came to 1%; in assay [2], 84%. The same molecule showed a pKi in assay [3] of 7.48.

For `Cc1ccc2cccc(OCc3c(C)ccc(N4CCC[C@@H]4CO)c3C)c2n1`, the inhibition in assay [1] turned out to be 9%; in assay [2] it was 12%.

In the case of `Cc1ccc2cccc(OCc3c(C)ccc(N4CCC[C@H]4CO)c3C)c2n1`, the values for the inhibition in assay [1] and in assay [2] were 1% and 19%, respectively.

As for `Cc1ccc2cccc(OCc3c(C)ccc(N4CCC[C@@H]4CN4C(=O)c5ccccc5C4=O)c3C)c2n1`, the inhibition in assay [1] was 1%; in assay [2] it was 8%.
